Reference: US20240116985A1, “STAPLED PEPTIDES AND METHODS THEREOF” (priority 2020, published 2024)

Biological target: T1, full-length beta-Catenin (Uniprot ID P35222) (Homo sapiens, UniProt P35222)
T1 construct: 10 nM full-length beta-Catenin (Uniprot ID P35222)
T1 sequence (P35222 1-781): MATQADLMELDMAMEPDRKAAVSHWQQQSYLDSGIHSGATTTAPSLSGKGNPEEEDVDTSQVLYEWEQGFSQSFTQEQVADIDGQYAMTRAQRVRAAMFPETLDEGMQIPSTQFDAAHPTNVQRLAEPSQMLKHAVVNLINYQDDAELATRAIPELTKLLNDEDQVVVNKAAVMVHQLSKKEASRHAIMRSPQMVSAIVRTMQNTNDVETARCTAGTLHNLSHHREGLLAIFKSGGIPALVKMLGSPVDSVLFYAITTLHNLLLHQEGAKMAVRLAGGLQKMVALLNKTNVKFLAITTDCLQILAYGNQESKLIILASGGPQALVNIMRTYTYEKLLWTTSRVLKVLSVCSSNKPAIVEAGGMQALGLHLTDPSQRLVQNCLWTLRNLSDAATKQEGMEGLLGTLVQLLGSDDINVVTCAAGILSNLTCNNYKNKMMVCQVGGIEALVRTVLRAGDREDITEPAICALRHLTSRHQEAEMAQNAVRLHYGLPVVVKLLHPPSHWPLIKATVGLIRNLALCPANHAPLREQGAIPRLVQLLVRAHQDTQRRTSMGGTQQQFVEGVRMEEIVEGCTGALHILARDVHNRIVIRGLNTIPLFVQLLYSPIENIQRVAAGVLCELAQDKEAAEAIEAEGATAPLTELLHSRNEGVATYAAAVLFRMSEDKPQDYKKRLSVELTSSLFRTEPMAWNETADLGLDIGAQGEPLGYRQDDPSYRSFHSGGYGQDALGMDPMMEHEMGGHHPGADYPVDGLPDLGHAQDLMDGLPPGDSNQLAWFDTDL
Assay: Fluorescence polarization IC50 (beta-catenin / 5FAM-TCF4 10-53 competition)
Assay type: binding
Details: fluorescence polarization; read-out: beta-Catenin FP IC50

SMILES	IC50 [nM]
CC(=O)N1CCC[C@]12CCCCCCC1(CCCCCCCCOC(=O)N3CC[C@@](C(=O)N[C@@H](Cc4ccccc4Cl)C(=O)N[C@@H](Cc4csc5ccccc45)C(=O)N[C@@H](CCO)C(N)=O)(C3)NC(=O)[C@H](CCO)NC(=O)[C@H](Cc3ccccc3)NC(=O)[C@H](C)NC(=O)[C@H](C)NC(=O)[C@H](CN(CC(=O)O)CC(F)(F)F)NC(=O)[C@H](CC(=O)O)NC1=O)NC(=O)[C@H](CC(C)(C)C)NC(=O)[C@H](CC(=O)O)NC2=O (stereo partly drawn) [I-1699, Ac-PL3-Asp-Npg-B5-Asp-TfeGA-Ala-Ala-Phe-Hse-PyrS2-2C1F-BztA-Hse-NH2]	533
CC(=O)N1CCC[C@]12CCCCCCC1(CCCCCCCCOC(=O)N3CC[C@@](C(=O)N[C@@H](Cc4ccsc4)C(=O)N[C@@H](Cc4csc5ccccc45)C(=O)N[C@@H](CC(N)=O)C(N)=O)(C3)NC(=O)[C@H](CC(C)C)NC(=O)[C@H](Cc3ccccc3)NC(=O)[C@H](C)NC(=O)[C@H](C)NC(=O)[C@H](CN(CC(=O)O)CC(F)(F)F)NC(=O)[C@H](CC(=O)O)NC1=O)NC(=O)[C@H](CC(C)(C)C)NC(=O)[C@H](CC(=O)O)NC2=O (stereo partly drawn) [I-1715, Ac-PL3-Asp-Npg-B5-Asp-TfeGA-Ala-Ala-Phe-Leu-PyrS2-3Thi-BztA-Asn-NH2]	95
CC(=O)N1CCC[C@]12CCCCCCC1(CCCCCCCCOC(=O)N3CC[C@@](C(=O)N[C@@H](Cc4ccsc4)C(=O)N[C@@H](Cc4csc5ccccc45)C(=O)N[C@H](C(N)=O)[C@@H](C)O)(C3)NC(=O)[C@H](CC(C)C)NC(=O)[C@H](Cc3ccccc3)NC(=O)[C@H](C)NC(=O)[C@H](C)NC(=O)[C@H](CN(CC(=O)O)CC(F)(F)F)NC(=O)[C@H](CC(=O)O)NC1=O)NC(=O)[C@H](CC(C)(C)C)NC(=O)[C@H](CC(=O)O)NC2=O (stereo partly drawn) [I-1716, Ac-PL3-Asp-Npg-B5-Asp-TfeGA-Ala-Ala-Phe-Leu-PyrS2-3Thi-BztA-Thr-NH2]	224
CC(=O)N1CCC[C@]12CCCCCCC1(CCCCCCCCOC(=O)N3CC[C@@](C(=O)N[C@@H](Cc4ccsc4)C(=O)N[C@@H](Cc4csc5ccccc45)C(=O)N[C@@H](Cc4ccccc4C(N)=O)C(N)=O)(C3)NC(=O)[C@H](CC(C)C)NC(=O)[C@H](Cc3ccccc3)NC(=O)[C@H](C)NC(=O)[C@H](C)NC(=O)[C@H](CN(CC(=O)O)CC(F)(F)F)NC(=O)[C@H](CC(=O)O)NC1=O)NC(=O)[C@H](CC(C)(C)C)NC(=O)[C@H](CC(=O)O)NC2=O (stereo partly drawn) [I-1717, Ac-PL3-Asp-Npg-B5-Asp-TfeGA-Ala-Ala-Phe-Leu-PyrS2-3Thi-BztA-2cbmf-NH2]	249
CC(=O)NCCCC[C@H](NC(=O)[C@H](Cc1csc2ccccc12)NC(=O)[C@H](Cc1ccsc1)NC(=O)[C@]12CCN(C1)C(=O)OCCCCCCCCC1(CCCCCC[C@]3(CCCN3C(C)=O)C(=O)N[C@@H](CC(=O)O)C(=O)N[C@@H](CC(C)(C)C)C(=O)N1)C(=O)N[C@@H](CC(=O)O)C(=O)N[C@@H](CN(CC(=O)O)CC(F)(F)F)C(=O)N[C@@H](C)C(=O)N[C@@H](C)C(=O)N[C@@H](Cc1ccccc1)C(=O)N[C@@H](CC(C)C)C(=O)N2)C(N)=O (stereo partly drawn) [I-1719, Ac-PL3-Asp-Npg-B5-Asp-TfeGA-Ala-Ala-Phe-Leu-PyrS2-3Thi-BztA-AcLys-NH2]	187
CC(=O)N1CCC[C@]12CC=CCCCC1(CCCC=CCCCOC(=O)N3CC[C@@](C(=O)N[C@@H](Cc4ccccc4Cl)C(=O)N[C@@H](Cc4csc5ccccc45)C(=O)N[C@@H](CCC(N)=O)C(N)=O)(C3)NC(=O)[C@H](CC(N)=O)NC(=O)[C@H](Cc3ccccc3N)NC(=O)[C@H](C)NC(=O)[C@H](C)NC(=O)[C@H](CC(=O)O)NC(=O)[C@H](CC(=O)O)NC1=O)NC(=O)[C@H](CC(C)(C)C)NC(=O)[C@H](CC(=O)O)NC2=O (stereo partly drawn) [I-1727, Ac-PL3-Asp-Npg-B5-Asp-Asp-Ala-Ala-2NH2F-Asn-PyrS2-2C1F-BztA-Gln-NH2]	28

The remaining compounds from weak to strong by IC50, led by results:

IC50 [nM]	SMILES
597	CC(=O)N1CCC[C@]12CCCCCCC1(CCCCCCCCOC(=O)N3CC[C@@](C(=O)N[C@@H](Cc4ccccc4C#N)C(=O)N[C@@H](Cc4csc5ccccc45)C(=O)N[C@@H](CCC(N)=O)C(N)=O)(C3)NC(=O)[C@H](CC(C)C)NC(=O)[C@H](Cc3ccccc3)NC(=O)[C@H](C)NC(=O)[C@H](C)NC(=O)[C@H](CN(CC(=O)O)CC(F)(F)F)NC(=O)[C@H](CC(=O)O)NC1=O)NC(=O)[C@H](CC(C)(C)C)NC(=O)[C@H](CC(=O)O)NC2=O (stereo partly drawn) [I-1712, Ac-PL3-Asp-Npg-B5-Asp-TfeGA-Ala-Ala-Phe-Leu-PyrS2-2CNF-BztA-Gln-NH2]
382	CC(=O)N1CCC[C@]12CCCCCCC1(CCCCCCCCOC(=O)N3CC[C@@](C(=O)N[C@@H](Cc4ccsc4)C(=O)N[C@@H](Cc4csc5ccccc45)C(=O)N[C@@H](Cc4cccc(C(N)=O)c4)C(N)=O)(C3)NC(=O)[C@H](CC(C)C)NC(=O)[C@H](Cc3ccccc3)NC(=O)[C@H](C)NC(=O)[C@H](C)NC(=O)[C@H](CN(CC(=O)O)CC(F)(F)F)NC(=O)[C@H](CC(=O)O)NC1=O)NC(=O)[C@H](CC(C)(C)C)NC(=O)[C@H](CC(=O)O)NC2=O (stereo partly drawn) [I-1718, Ac-PL3-Asp-Npg-B5-Asp-TfeGA-Ala-Ala-Phe-Leu-PyrS2-3Thi-BztA-3cbmf-NH2]
212	CC(=O)N1CCC[C@]12CCCCCCC1(CCCCCCCCOC(=O)N3CC[C@@](C(=O)N[C@@H](Cc4ccsc4)C(=O)N[C@@H](Cc4csc5ccccc45)C(=O)N[C@@H](C)C(N)=O)(C3)NC(=O)[C@H](CC(C)C)NC(=O)[C@H](Cc3ccccc3)NC(=O)[C@H](C)NC(=O)[C@H](C)NC(=O)[C@H](CN(CC(=O)O)CC(F)(F)F)NC(=O)[C@H](CC(=O)O)NC1=O)NC(=O)[C@H](CC(C)(C)C)NC(=O)[C@H](CC(=O)O)NC2=O (stereo partly drawn) [I-1720, Ac-PL3-Asp-Npg-B5-Asp-TfeGA-Ala-Ala-Phe-Leu-PyrS2-3Thi-BztA-Ala-NH2]
24	CC(=O)N1CCC[C@]12CC=CCCCC1(CCCC=CCCCOC(=O)N3CC[C@@](C(=O)N[C@@H](CC4CCCC4)C(=O)N[C@@H](Cc4csc5ccccc45)C(=O)N[C@@H](CCC(N)=O)C(N)=O)(C3)NC(=O)[C@H](CC(C)C)NC(=O)[C@H](Cc3ccccc3)NC(=O)[C@H](C)NC(=O)[C@H](C)NC(=O)[C@H](CN(CC(=O)O)CC(F)(F)F)NC(=O)[C@H](CC(=O)O)NC1=O)NC(=O)[C@H](CC(C)(C)C)NC(=O)[C@H](CC(=O)O)NC2=O (stereo partly drawn) [I-1703, Ac-PL3-Asp-Npg-B5-Asp-TfeGA-Ala-Ala-Phe-Leu-PyrS2-CypA-BztA-Gln-NH2]
14	CC(=O)N1CCC[C@]12CC=CCCCC1(CCCC=CCCCOC(=O)N3CC[C@@](C(=O)N[C@@H](Cc4ccsc4)C(=O)N[C@@H](Cc4csc5ccccc45)C(=O)N[C@@H](CCC(N)=O)C(N)=O)(C3)NC(=O)[C@H](CC(N)=O)NC(=O)[C@H](Cc3ccccc3N)NC(=O)[C@H](C)NC(=O)[C@H](C)NC(=O)[C@H](CC(=O)O)NC(=O)[C@H](CC(=O)O)NC1=O)NC(=O)[C@H](CC(C)(C)C)NC(=O)[C@H](CC(=O)O)NC2=O (stereo partly drawn) [I-1728, Ac-PL3-Asp-Npg-B5-Asp-Asp-Ala-Ala-2NH2F-Asn-PyrS2-3Thi-BztA-Gln-NH2]
9	CC(=O)N(CC(=O)O)C[C@@H]1NC(=O)[C@H](CC(=O)O)NC(=O)C2(CCCC=CCCCOC(=O)N3CC[C@@](C(=O)N[C@@H](Cc4ccsc4)C(=O)N[C@@H](Cc4csc5ccccc45)C(=O)N[C@@H](CCC(N)=O)C(N)=O)(C3)NC(=O)[C@H](CC(C)C)NC(=O)[C@H](Cc3ccccc3)NC(=O)[C@H](C)NC(=O)[C@H](C)NC1=O)CCCC=CC[C@]1(CCCN1C(C)=O)C(=O)N[C@@H](CC(=O)O)C(=O)N[C@@H](CC(C)(C)C)C(=O)N2 (stereo partly drawn) [I-1729, Ac-PL3-Asp-Npg-B5-Asp-[Ac]GA-Ala-Ala-Phe-Leu-PyrS2-3Thi-BztA-Gln-NH2]
